Experimental data from patent US6737383B1, “Herbicidal oxadiazolidines” (priority 1999, dated 2004).

Tests used:
bedstraw = experiment: Test B pre/postemergence bedstraw; type: in vivo, Galium aparine; conditions: Preemergence
In short: (§1)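 Response is a visual 0-to-10 score relative to untreated plants, where 0 means no effect and 10 means complete control, taken twelve to sixteen days after application. Treatments went onto soil at planting and onto foliage of 1- to 4-leaf plants, using a surfactant-containing non-phytotoxic solvent.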

blackgrass = experiment: Test B pre/postemergence blackgrass; type: in vivo, Alopecurus myosuroides
In short: as §1

surinam grass = experiment: Test B pre/postemergence surinam grass; type: in vivo, Brachiaria decumbens
In short: as §1

cocklebur = experiment: Test B pre/postemergence cocklebur; type: in vivo, Xanthium strumarium
In short: as §1

corn = experiment: Test B pre/postemergence corn; type: in vivo, Zea mays
In short: as §1

crabgrass = experiment: Test B pre/postemergence crabgrass; type: in vivo, Digitaria sanguinalis
In short: as §1

giant foxtail = experiment: Test B pre/postemergence giant foxtail; type: in vivo, Setaria faberii
In short: as §1

morningglory = experiment: Test B pre/postemergence morningglory; type: in vivo, Ipomoea hederacea
In short: as §1

pigweed = experiment: Test B pre/postemergence pigweed; type: in vivo, Amaranthus retroflexus
In short: as §1

rape = experiment: Test B pre/postemergence rape; type: in vivo, Brassica napus
In short: as §1

soybean = experiment: Test B pre/postemergence soybean; type: in vivo, Glycine max
In short: as §1

sugar beet = experiment: Test B pre/postemergence sugar beet; type: in vivo, Beta vulgaris
In short: as §1

velvetleaf = experiment: Test B pre/postemergence velvetleaf; type: in vivo, Abutilon theophrasti
In short: as §1

wheat = experiment: Test B pre/postemergence wheat; type: in vivo, Triticum aestivum
In short: as §1

wild oat = experiment: Test B pre/postemergence wild oat; type: in vivo, Avena fatua
In short: as §1

purple nutsedge = experiment: Test B pre/postemergence purple nutsedge; type: in vivo, Cyperus rotundus
In short: as §1

[1] = Postemergence, Rate 125 g/ha, scale 0 to 10, 0 is no effect, 10 is complete control
[2] = Postemergence, Rate 500 g/ha, scale 0 to 10, 0 is no effect, 10 is complete control
[3] = Preemergence, Rate 62 g/ha, scale 0 to 10 (0 no effect, 10 complete control)
[4] = Preemergence, Rate 125 g/ha, scale 0 to 10, 0 is no effect, 10 is complete control
[5] = Preemergence, Rate 500 g/ha, scale of 0 to 10 where 0 is no effect and 10 is complete control
[6] = Postemergence, Rate 62 g/ha, scale of 0 to 10, 0 is no effect, 10 is complete control
[7] = Rate 250 g/ha, Postemergence, scale of 0 to 10 where 0 is no effect and 10 is complete control

For `COCn1c(=O)on(C(=O)N(c2ccc(Cl)cc2)C(C)C)c1=O` [Compound 533], the “Bedstraw plant response rating” value (bedstraw; Rate 62 g/ha, scale 0 to 10 (0 no effect, 10 complete control)) was 0, the “Bedstraw plant response rating” value (bedstraw; Rate 125 g/ha, scale 0 to 10, 0 is no effect, 10 is complete control) was 0 and the “Bedstraw plant response rating (0 to 10 scale)” value (bedstraw; Rate 250 g/ha) was 0. The “Bedstraw plant response rating” value (bedstraw; Rate 500 g/ha, scale of 0 to 10 where 0 is no effect and 10 is complete control) was 0, the “Blackgrass plant response rating” value (blackgrass; [1]) was 2 and the “Plant response rating, Blackgrass” value (blackgrass; [2]) was 7. For the same compound, the “Blackgrass plant response rating” value (blackgrass; [3]) was 4, the “Blackgrass plant response rating” value (blackgrass; [4]) was 8 and the “Blackgrass plant response rating (0 to 10 scale)” value (blackgrass; Preemergence, Rate 250 g/ha) was 9. The “Blackgrass plant response rating” value (blackgrass; [5]) was 9, the “B. signalgrass plant response rating” value (surinam grass; [6]) was 0 and the “B. signalgrass plant response rating” value (surinam grass; [1]) was 0. The “Plant response rating, B. signalgrass” value (surinam grass; [2]) was 4, the “B. signalgrass plant response rating” value (surinam grass; [3]) was 2 and the “B. signalgrass plant response rating” value (surinam grass; [4]) was 3. For the same compound, the “B. signalgrass plant response rating (0 to 10 scale, 0 is no effect, 10 is complete control)” value (surinam grass; Preemergence, Rate 250 g/ha) was 9, the “B. signalgrass plant response rating” value (surinam grass; [5]) was 9 and the “Cocklebur plant response rating” value (cocklebur; [6]) was 2. For the same compound, the “Cocklebur plant response rating” value (cocklebur; [1]) was 2, the “Plant response rating, Cocklebur” value (cocklebur; [2]) was 4 and the “Cocklebur plant response rating” value (cocklebur; [3]) was 0. The “Cocklebur plant response rating” value (cocklebur; [4]) was 0, the “Cocklebur plant response rating (0 to 10 scale)” value (cocklebur; Preemergence, Rate 250 g/ha) was 0 and the “Cocklebur plant response rating” value (cocklebur; [5]) was 0. The “Plant response rating, Cocklebur” value (cocklebur; [7]) was 2, the “Corn plant response rating” value (corn; [6]) was 0 and the “Corn plant response rating” value (corn; [1]) was 0. For the same compound, the “Plant response rating, Corn” value (corn; [2]) was 0, the “Corn plant response rating” value (corn; [3]) was 0 and the “Corn plant response rating” value (corn; [4]) was 0. The “Corn plant response rating (0 to 10 scale)” value (corn; Preemergence, Rate 250 g/ha) was 0, the “Corn plant response rating” value (corn; [5]) was 6 and the “Plant response rating, Corn” value (corn; [7]) was 0. The “Crabgrass plant response rating” value (crabgrass; [6]) was 3, the “Crabgrass plant response rating” value (crabgrass; [1]) was 8 and the “Plant response rating, Crabgrass” value (crabgrass; [2]) was 9. The “Crabgrass plant response rating” value (crabgrass; [3]) was 9, the “Crabgrass plant response rating” value (crabgrass; [4]) was 10 and the “Crabgrass plant response rating (0 to 10 scale)” value (crabgrass; Preemergence, Rate 250 g/ha) was 10. The “Crabgrass plant response rating” value (crabgrass; [5]) was 10, the “Plant response rating, Crabgrass” value (crabgrass; [7]) was 9 and the “Giant foxtail plant response rating” value (giant foxtail; [6]) was 8. The “Giant foxtail plant response rating” value (giant foxtail; [1]) was 8, the “Plant response rating, Giant foxtail” value (giant foxtail; [2]) was 9 and the “Giant foxtail plant response rating” value (giant foxtail; [3]) was 9. The “Giant foxtail plant response rating” value (giant foxtail; [4]) was 10, the “Giant foxtail plant response rating (0 to 10 scale)” value (giant foxtail; Preemergence, Rate 250 g/ha) was 10 and the “Giant foxtail plant response rating” value (giant foxtail; [5]) was 10. For the same compound, the “Plant response rating, Giant foxtail” value (giant foxtail; [7]) was 9, the “Morningglory plant response rating” value (morningglory; [6]) was 4 and the “Morningglory plant response rating” value (morningglory; [1]) was 4. The “Plant response rating, Morningglory” value (morningglory; [2]) was 7, the “Morningglory plant response rating” value (morningglory; [3]) was 0 and the “Morningglory plant response rating” value (morningglory; [4]) was 0. The “Morningglory plant response rating (0 to 10 scale)” value (morningglory; Preemergence, Rate 250 g/ha) was 0, the “Morningglory plant response rating” value (morningglory; [5]) was 0 and the “Plant response rating, Morningglory” value (morningglory; [7]) was 7. For the same compound, the “Redroot pigweed plant response rating” value (pigweed; [6]) was 9, the “Redroot pigweed plant response rating” value (pigweed; [1]) was 9 and the “Plant response rating, Redroot pigweed” value (pigweed; [2]) was 9. The “Redroot pigweed plant response rating” value (pigweed; [3]) was 8, the “Redroot pigweed plant response rating” value (pigweed; [4]) was 8 and the “Redroot pigweed plant response rating (0 to 10 scale)” value (pigweed; Preemergence, Rate 250 g/ha) was 8. For the same compound, the “Redroot pigweed plant response rating” value (pigweed; [5]) was 8, the “Rape plant response rating” value (rape; [6]) was 0 and the “Rape plant response rating” value (rape; [1]) was 0. The “Plant response rating, Rape” value (rape; [2]) was 4, the “Rape plant response rating” value (rape; [3]) was 0 and the “Rape plant response rating” value (rape; [4]) was 0. For the same compound, the “Rape plant response rating (0 to 10 scale)” value (rape; Preemergence, Rate 250 g/ha) was 7, the “Rape plant response rating” value (rape; [5]) was 7 and the “Soybean plant response rating” value (soybean; [6]) was 4. For the same compound, the “Soybean plant response rating” value (soybean; [1]) was 4, the “Plant response rating, Soybean” value (soybean; [2]) was 4 and the “Soybean plant response rating” value (soybean; [3]) was 0. For the same compound, the “Soybean plant response rating” value (soybean; [4]) was 0, the “Soybean plant response rating (0 to 10 scale)” value (soybean; Preemergence, Rate 250 g/ha) was 0 and the “Soybean plant response rating” value (soybean; [5]) was 0. For the same compound, the “Plant response rating, Soybean” value (soybean; [7]) was 4, the “Sugarbeets plant response rating” value (sugar beet; [6]) was 0 and the “Sugarbeets plant response rating” value (sugar beet; [1]) was 0. For the same compound, the “Plant response rating, Sugarbeets” value (sugar beet; [2]) was 4, the “Sugarbeets plant response rating” value (sugar beet; [3]) was 3 and the “Sugarbeets plant response rating” value (sugar beet; [4]) was 5. The “Sugarbeets plant response rating (0 to 10 scale)” value (sugar beet; Preemergence, Rate 250 g/ha) was 7, the “Sugarbeets plant response rating” value (sugar beet; [5]) was 7 and the “Velvetleaf plant response rating” value (velvetleaf; [6]) was 0. For the same compound, the “Velvetleaf plant response rating” value (velvetleaf; [1]) was 4, the “Plant response rating, Velvetleaf” value (velvetleaf; [2]) was 8 and the “Velvetleaf plant response rating” value (velvetleaf; [3]) was 0. The “Velvetleaf plant response rating” value (velvetleaf; [4]) was 0, the “Velvetleaf plant response rating (0 to 10 scale)” value (velvetleaf; Preemergence, Rate 250 g/ha) was 5 and the “Velvetleaf plant response rating” value (velvetleaf; [5]) was 5. The “Plant response rating, Velvetleaf” value (velvetleaf; [7]) was 4, the “Wheat plant response rating” value (wheat; [6]) was 0 and the “Wheat plant response rating” value (wheat; [1]) was 0. For the same compound, the “Plant response rating, Wheat” value (wheat; [2]) was 2, the “Wheat plant response rating” value (wheat; [3]) was 0 and the “Wheat plant response rating” value (wheat; [4]) was 0. For the same compound, the “Wheat plant response rating (0 to 10 scale)” value (wheat; Preemergence, Rate 250 g/ha) was 0, the “Wheat plant response rating” value (wheat; [5]) was 0 and the “Wild oats plant response rating” value (wild oat; [6]) was 0. The “Wild oats plant response rating” value (wild oat; [1]) was 0, the “Plant response rating, Wild oats” value (wild oat; [2]) was 0 and the “Wild oats plant response rating” value (wild oat; [3]) was 0. The “Wild oats plant response rating” value (wild oat; [4]) was 0, the “Wild oats plant response rating (0 to 10 scale)” value (wild oat; Preemergence, Rate 250 g/ha) was 9 and the “Wild oats plant response rating” value (wild oat; [5]) was 9. The “Nutsedge plant response rating” value (purple nutsedge; [6]) was 0, the “Nutsedge plant response rating” value (purple nutsedge; [1]) was 0 and the “Plant response rating, Nutsedge” value (purple nutsedge; [2]) was 0. For the same compound, the “Nutsedge plant response rating” value (purple nutsedge; [3]) was 0, the “Nutsedge plant response rating” value (purple nutsedge; [4]) was 0 and the “Nutsedge plant response rating” value (purple nutsedge; [5]) was 0. For the same compound, the “Plant response rating, Nutsedge” value (purple nutsedge; [7]) was 0.
